Literature values in patent publication US20030003131A1, “Method for manufacture of free-flowing powder containing water-dispersible sterols” (priority 2001, published 2003).
Like-named read-outs stand apart in the source and are kept apart here.

Key:
LDL cholesterol = details: 2.8 g sitostanol/day given as sitostanol ester in margarine
cholesterol absorption [1] = system: cholesterol absorption
cholesterol absorption [2] = details: oil-free delivery system with emulsifier

For sitostanol ester, the “reduction of LDL cholesterol” value (LDL cholesterol) is given as 16% and the “less effective at reducing cholesterol absorption compared to the unesterified sterol” value (cholesterol absorption [1]; humans, ester dissolved in dietary fat) is given as 21%.
For `CC[C@H](CC[C@@H](C)[C@H]1CC[C@H]2[C@@H]3CC=C4C[C@@H](O)CC[C@]4(C)[C@H]3CC[C@]12C)C(C)C` [sitosterol], the “decrease of serum cholesterol levels” value (serum cholesterol; 3-9 g/day of powdered sitosterol, dose-response study) is listed as 12% and the “reduction of serum cholesterol” value (serum cholesterol; doses of 5-18 g sitosterol/day) is listed as 16-20%.
In the case of `CC[C@H](CC[C@@H](C)[C@H]1CC[C@H]2[C@@H]3CC[C@H]4C[C@@H](O)CC[C@]4(C)[C@H]3CC[C@]12C)C(C)C` [sitostanol], the “reduction of serum cholesterol” value (serum cholesterol; 1.5 g/day, subjects with severe hypercholesterolemia) is listed as 15%, the “effect on serum cholesterol” value (serum cholesterol; 3 g/day, subjects with moderate hypercholesterolemia) is listed as “no effect” and the “reduction of cholesterol absorption” value (cholesterol absorption [2]) is listed as no more than 37%.
For neomycin, the “effect on cholesterol absorption” value (cholesterol absorption [1]; orally administered) is listed as “reduces cholesterol absorption effectively”.
